Tested on: brain / choroid plexus uptake
Experiment: PET imaging in cynomolgus monkey
Format: in vivo

Cl.O=C(Cc1ccc(OC2CCNCC2)cc1OCCF)N1CCC(N2C(=O)CCc3ccccc32)CC1 [Compound 1, 1-(1-(2-(2-(2-fluoroethoxy)-4-(piperidin-4-yloxy)phenyl)acetyl)piperidin-4-yl)-3,4-dihydroquinolin-2(1H)-one]
effect of blocking on [18F]1 uptake (5 mg/kg of 1 given 30 min prior to [18F]1): increase of overall brain activity, primarily in the region of the choroid plexus | effect of chase on [18F]1 choroid plexus uptake (5 mg/kg of 1 given 45 min after [18F]1): uptake within the choroid plexus was completely removed

Reference: paper PMC3955700 (Bioorganic & medicinal chemistry letters, 2013)
